The text below walks through data of patent US20080021026A1, “BENZOTHIOPHENE INHIBITORS OF RHO KINASE” (priority 2006, published 2008).

The assay deals with T1, recombinant N-terminal GST-tagged human Rho kinase 2 (ROCK2, amino acids 1-552) (Homo sapiens, UniProt O75116).
T1 construct: ROCK2, amino acids 1-552; purchased Invitrogen Inc. PV3759
Briefly: In vitro Rho kinase assay (luciferase-based ATP consumption), ROCK2. The format is biochemical. As to the method:
In Vitro Rho Kinase Assay
Rho kinase biochemical assays described below depend on firefly luciferase-based, indirect measurement of total ATP consumption by the kinase following incubation with substrate and ATP. 25 μl of Rho kinase assay buffer (20 mM Tris-HCL [pH 7.5], 1 mM MgCl2, 0.4 mM CaCl2, 0.15 mM EGTA, 0.1 mg/ml bovine serum albumin) containing 0.82 μg/ml of recombinant N-terminal GST-tagged human Rho kinase 1 (ROCK1, amino acids 1-535, Invitrogen Inc., cat. #PV-3691) or recombinant N-terminal GST-tagged human Rho kinase 2 (ROCK2, amino acids 1-552, Invitrogen Inc., cat #PV3759), 100 μg/ml S6 peptide substrate (related to amino acids 218-249 of the human 40S ribosomal protein S6, and suitable for ROCK1 or ROCK2, e.g. Upstate/Millipore Inc., cat #12-420), and 3 µM ATP are dispensed to wells of a 384 multi-well opaque plate. The plate is centrifuged for 30 seconds at approximately 200×g. 240 nl of test compound in DMSO is dispensed to each well by passive pin transfer. The lag phase of this in vitro kinase reaction permits addition of compounds soon after the reaction initiates. The reaction is allowed to incubate at 30° C. for 2 hours. The assay plates are sealed and maintained in a humidified environment. After 2 hours, 25 μl of easylite protein kinase assay reagent (Perkin-Elmer, Inc.) is dispensed. After an additional 10 minute incubation at room temperature (about 22° C.), luminescence activity is measured on a Molecular Devices Analyst multi-mode plate reader or other suitable plate reader. Kinase inhibition results in less ATP consumption, and therefore increased luminescence signal. Negative control activity is measured with DMSO lacking any test compound. The positive control is 2-methyl-1-(4-methylisoquinolin-5-ylsulfonyl)perhydro-1,4-diazepine hydrochloride (aka H-1152P, HCl salt). Efficacy is measured as a percentage of positive control activity. […] In some cases, kinase reactions and compound testing are performed in 1536 multi-well plates under similar conditions, with assay volumes appropriately scaled. The designation NT means the cited example was not tested.

Where [1] appears, read: recombinant GST-tagged human ROCK2, luciferase-based ATP consumption, read-out: ROCK2 IC50.

Where two headings read alike, the source gives them in different places.

T1 sequence (O75116 1-552): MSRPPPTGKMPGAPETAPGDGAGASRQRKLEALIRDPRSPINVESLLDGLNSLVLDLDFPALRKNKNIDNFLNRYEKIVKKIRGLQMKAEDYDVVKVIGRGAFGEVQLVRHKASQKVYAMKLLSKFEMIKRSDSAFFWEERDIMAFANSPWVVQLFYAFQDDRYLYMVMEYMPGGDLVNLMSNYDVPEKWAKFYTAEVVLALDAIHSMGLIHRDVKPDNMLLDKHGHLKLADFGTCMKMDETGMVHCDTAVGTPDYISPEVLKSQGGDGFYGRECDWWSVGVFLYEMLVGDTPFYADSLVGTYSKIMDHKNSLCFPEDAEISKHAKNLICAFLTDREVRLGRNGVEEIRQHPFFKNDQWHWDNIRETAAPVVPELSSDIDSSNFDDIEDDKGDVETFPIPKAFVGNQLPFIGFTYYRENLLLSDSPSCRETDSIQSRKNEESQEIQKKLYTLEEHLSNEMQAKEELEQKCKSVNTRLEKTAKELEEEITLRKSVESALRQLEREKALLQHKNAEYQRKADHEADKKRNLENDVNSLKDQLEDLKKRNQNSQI

What is called IC50 is the concentration needed to halve the response being measured. Regarding `Cc1c(-c2ccnc(N)n2)sc2ccc(C(=O)N(C)C3CCCCC3)cc12` [Example 482, CN(C1CCCCC1)C(═O)c2ccc3sc(c(C)c3c2)-c4ccnc(N)n4], the IC50 under setting [1] is less than 5 µM.

In the case of `CCNC(=O)c1ccc2sc(-c3ccnc(N)n3)c(C)c2c1` [Example 330, CCNC(═O)c1ccc2sc(c(C)c2c1)-c3ccnc(N)n3], the IC50 under setting [1] was less than 5 µM.

`Cc1c(-c2ccnc(N)n2)sc2ccc(C(=O)NCCc3ccccc3)cc12` [Example 378, Cc1c(sc2ccc(cc12)C(═O)NCCc3ccccc3)-c4ccnc(N)n4]: the IC50 under setting [1] is less than 5 µM.

Take `CCC(C)NC(=O)c1ccc2sc(-c3ccnc(N)n3)c(C)c2c1` (stereo not shown) [Example 341, CCC(C)NC(═O)c1ccc2sc(c(C)c2c1)-c3ccnc(N)n3]: the IC50 under setting [1] was less than 5 µM.

As to `Cc1c(-c2ccnc(N)n2)sc2ccc(C(=O)N3CCN(C(=O)OC(C)(C)C)C[C@H]3CO)cc12` [Example 561, Cc1c(sc2ccc(cc12)C(═O)N3CCN(C[C@H]3CO)C(═O)OC(C)(C)C)-c4ccnc(N)n4], under setting [1], the IC50 was greater than 5 µM.

Take `Cc1c(-c2ccnc(N)n2)sc2ccc(C(=O)N3CCCCC3CO)cc12` (stereo not shown) [Example 489, Cc1c(sc2ccc(cc12)C(═O)N3CCCCC3CO)-c4ccnc(N)n4]: the IC50 under setting [1] is less than 5 µM.

Turning to `Cc1c(-c2ccnc(N)n2)sc2ccc(C(=O)N3CCCCC3CCO)cc12` (stereo not shown) [Example 497, Cc1c(sc2ccc(cc12)C(═O)N3CCCCC3CCO)-c4ccnc(N)n4], under setting [1], the IC50 is greater than 5 µM.

As for `Cc1c(-c2ccnc(N)n2)sc2ccc(C(=O)NCC3CCCO3)cc12` (stereo not shown) [Example 357, Cc1c(sc2ccc(cc12)C(═O)NCC3CCCO3)-c4ccnc(N)n4], the IC50 under setting [1] was less than 5 µM.

Regarding `Cc1c(-c2ccnc(N)n2)sc2ccc(C(=O)NCc3ccccc3OC(F)(F)F)cc12` [Example 453, Cc1c(sc2ccc(cc12)C(═O)NCc3ccccc3OC(F)(F)F)-c4ccnc(N)n4], under setting [1], the IC50 is greater than 5 µM.

On to `COc1ccc(N2CCN(C(=O)c3ccc4sc(-c5ccnc(N)n5)c(C)c4c3)CC2)cc1` [Example 540, COc1ccc(cc1)N2CCN(CC2)C(═O)c3ccc4sc(c(C)c4c3)-c5ccnc(N)n5], for which the IC50 under setting [1] is less than 5 µM.

Regarding `Cc1c(-c2ccnc(N)n2)sc2ccc(C(=O)NCC#N)cc12` [Example 332, Cc1c(sc2ccc(cc12)C(═O)NCC#N)-c3ccnc(N)n3], under setting [1], the IC50 is less than 5 µM.

On to `Cc1c(-c2ccnc(N)n2)sc2ccc(C(=O)N3CCN(C4CCCCC4)CC3)cc12` [Example 519, Cc1c(sc2ccc(cc12)C(═O)N3CCN(CC3)C4CCCCC4)-c5ccnc(N)n5], for which, under setting [1], the IC50 is greater than 5 µM.

For the molecule `Cc1c(-c2ccnc(N)n2)sc2ccc(C(=O)N(CCO)CCO)cc12` [Example 480, Cc1c(sc2ccc(cc12)C(═O)N(CCO)CCO)-c3ccnc(N)n3], the IC50 under setting [1] is less than 5 µM.

For `Cc1c(-c2ccnc(N)n2)sc2ccc(C(=O)NCCc3ccc4c(c3)OCO4)cc12` [Example 456, Cc1c(sc2ccc(cc12)C(═O)NCCc3ccc4OCOc4c3)-c5ccnc(N)n5], the IC50 under setting [1] was less than 5 µM.

On to `Cc1ccc(C)c(N2CCN(C(=O)c3ccc4sc(-c5ccnc(N)n5)c(C)c4c3)CC2)c1` [Example 539, Cc1ccc(C)c(c1)N2CCN(CC2)C(═O)c3ccc4sc(c(C)c4c3)-c5ccnc(N)n5], for which the IC50 under setting [1] was greater than 5 µM.

Turning to `CCN(CC)CCCC(C)NC(=O)c1ccc2sc(-c3ccnc(N)n3)c(C)c2c1` (stereo not shown) [Example 431, CCN(CC)CCCC(C)NC(═O)c1ccc2sc(c(C)c2c1)-c3ccnc(N)n3], under setting [1], the IC50 is greater than 5 µM.

On to `Cc1c(-c2ccnc(N)n2)sc2ccc(C(=O)NCCC(C)(C)C)cc12` [Example 358, Cc1c(sc2ccc(cc12)C(═O)NCCC(C)(C)C)-c3ccnc(N)n3], for which the IC50 under setting [1] is less than 5 µM.

With `Cc1c(-c2ccnc(N)n2)sc2ccc(C(=O)N3CCC(NC(=O)OC(C)(C)C)C3)cc12` (stereo not shown) [Example 531, Cc1c(sc2ccc(cc12)C(═O)N3CCC(C3)NC(═O)OC(C)(C)C)-c4ccnc(N)n4], the IC50 under setting [1] was less than 5 µM.

As to `Cc1c(-c2ccnc(N)n2)sc2ccc(C(=O)N3CCN(c4ccccc4)CC3)cc12` [Example 513, Cc1c(sc2ccc(cc12)C(═O)N3CCN(CC3)c4ccccc4)-c5ccnc(N)n5], under setting [1], the IC50 was less than 5 µM.

In the case of `CC(=O)c1ccc(N2CCN(C(=O)c3ccc4sc(-c5ccnc(N)n5)c(C)c4c3)CC2)cc1` [Example 550, CC(═O)c1ccc(cc1)N2CCN(CC2)C(═O)c3ccc4sc(c(C)c4c3)-c5ccnc(N)n5], the IC50 under setting [1] was greater than 5 µM.

For `Cc1c(-c2ccnc(N)n2)sc2ccc(C(=O)N[C@H](C)c3ccccc3)cc12` [Example 377, C[C@@H](NC(═O)c1ccc2sc(c(C)c2c1)-c3ccnc(N)n3)c4ccccc4], under setting [1], the IC50 was less than 5 µM.

`Cc1c(-c2ccnc(N)n2)sc2ccc(C(=O)NCc3ccc(F)c(Cl)c3)cc12` [Example 432, Cc1c(sc2ccc(cc12)C(═O)NCc3ccc(F)c(Cl)c3)-c4ccnc(N)n4]: the IC50 under setting [1] is less than 5 µM.

Consider `COc1ccc(N2CCN(C(=O)c3ccc4sc(-c5ccnc(N)n5)c(C)c4c3)CC2)cc1OC` [Example 570, COc1ccc(cc1OC)N2CCN(CC2)C(═O)c3ccc4sc(c(C)c4c3)-c5ccnc(N)n5], for which the half-inhibitory concentration (IC50) under setting [1] was greater than 5 µM.

Consider `Cc1c(-c2ccnc(N)n2)sc2ccc(C(=O)N(C)CCc3ccccn3)cc12` [Example 501, CN(CCc1ccccn1)C(═O)c2ccc3sc(c(C)c3c2)-c4ccnc(N)n4], for which the IC50 under setting [1] was greater than 5 µM.

On to `Cc1c(-c2ccnc(N)n2)sc2ccc(C(=O)N3CCCN(Cc4ccccc4)CC3)cc12` [Example 522, Cc1c(sc2ccc(cc12)C(═O)N3CCCN(CC3)Cc4ccccc4)-c5ccnc(N)n5], for which, under setting [1], the IC50 is less than 5 µM.

For the molecule `CCOC(=O)CC(C)NC(=O)c1ccc2sc(-c3ccnc(N)n3)c(C)c2c1` (stereo not shown) [Example 390, CCOC(═O)CC(C)NC(═O)c1ccc2sc(c(C)c2c1)-c3ccnc(N)n3], the IC50 under setting [1] was less than 5 µM.

On to `CCN(C(=O)c1ccc2sc(-c3ccnc(N)n3)c(C)c2c1)C1CCCCC1` [Example 493, CCN(C1CCCCC1)C(═O)c2ccc3sc(c(C)c3c2)-c4ccnc(N)n4], for which the IC50 under setting [1] was less than 5 µM.

As to `Cc1c(-c2ccnc(N)n2)sc2ccc(C(=O)NCCN(C(C)C)C(C)C)cc12` [Example 416, CC(C)N(CCNC(═O)c1ccc2sc(c(C)c2c1)-c3ccnc(N)n3)C(C)C], under setting [1], the IC50 was less than 5 µM.

Consider `Cc1c(-c2ccnc(N)n2)sc2ccc(C(=O)NCCCO)cc12` [Example 343, Cc1c(sc2ccc(cc12)C(═O)NCCCO)-c3ccnc(N)n3], for which, under setting [1], the IC50 is less than 5 µM.

With `COc1ccc(CNC(=O)c2ccc3sc(-c4ccnc(N)n4)c(C)c3c2)cc1` [Example 403, COc1ccc(CNC(═O)c2ccc3sc(c(C)c3c2)-c4ccnc(N)n4)cc1], the IC50 under setting [1] was less than 5 µM.

For the molecule `Cc1c(-c2ccnc(N)n2)sc2ccc(C(=O)N3CCN(c4ccccc4F)CC3)cc12` [Example 525, Cc1c(sc2ccc(cc12)C(═O)N3CCN(CC3)c4ccccc4F)-c5ccnc(N)n5], the IC50 under setting [1] was greater than 5 µM.

As for `Cc1ccc([C@@H](C)NC(=O)c2ccc3sc(-c4ccnc(N)n4)c(C)c3c2)cc1` [Example 395, C[C@@H](NC(═O)c1ccc2sc(c(C)c2c1)-c3ccnc(N)n3)c4ccc(C)cc4], under setting [1], the half-inhibitory concentration (IC50) is greater than 5 µM.

For the molecule `Cc1c(-c2ccnc(N)n2)sc2ccc(C(=O)N(C)CCO)cc12` [Example 464, CN(CCO)C(═O)c1ccc2sc(c(C)c2c1)-c3ccnc(N)n3], under setting [1], the IC50 is less than 5 µM.

On to `Cc1c(-c2ccnc(N)n2)sc2ccc(C(=O)NCc3ccc(Cl)cc3Cl)cc12` [Example 447, Cc1c(sc2ccc(cc12)C(═O)NCc3ccc(Cl)cc3Cl)-c4ccnc(N)n4], for which the IC50 (ROCK2 IC50, recombinant GST-tagged human ROCK2, luciferase-based ATP consumption) is greater than 5 µM.

With `Cc1c(-c2ccnc(N)n2)sc2ccc(C(=O)N3CC(C)CC(C)C3)cc12` (stereo not shown) [Example 481, CC1CC(C)CN(C1)C(═O)c2ccc3sc(c(C)c3c2)-c4ccnc(N)n4], the IC50 under setting [1] was less than 5 µM.

`COC(=O)C1CCN(C(=O)c2ccc3sc(-c4ccnc(N)n4)c(C)c3c2)CC1` [Example 504, COC(═O)C1CCN(CC1)C(═O)c2ccc3sc(c(C)c3c2)-c4ccnc(N)n4]: the IC50 under setting [1] was greater than 5 µM.

Consider `CCOC(=O)N1CCN(C(=O)c2ccc3sc(-c4ccnc(N)n4)c(C)c3c2)CC1` [Example 511, CCOC(═O)N1CCN(CC1)C(═O)c2ccc3sc(c(C)c3c2)-c4ccnc(N)n4], for which, under setting [1], the IC50 is greater than 5 µM.

Consider `Cc1c(-c2ccnc(N)n2)sc2ccc(C(=O)N3CCN(c4ccc(C#N)cn4)CC3)cc12` [Example 533, Cc1c(sc2ccc(cc12)C(═O)N3CCN(CC3)c4ccc(cn4)C#N)-c5ccnc(N)n5], for which the IC50 under setting [1] was less than 5 µM.

Consider `Cc1c(-c2ccnc(N)n2)sc2ccc(C(=O)NCCC3CCCN3C)cc12` (stereo not shown) [Example 386, CN1CCCC1CCNC(═O)c2ccc3sc(c(C)c3c2)-c4ccnc(N)n4], for which the IC50 under setting [1] was less than 5 µM.

With `CCN(CCO)C(=O)c1ccc2sc(-c3ccnc(N)n3)c(C)c2c1` [Example 470, CCN(CCO)C(═O)c1ccc2sc(c(C)c2c1)-c3ccnc(N)n3], under setting [1], the IC50 was less than 5 µM.
